Patent publication US6709873B1, “Method for production of antibodies to specific sites of rapamycin” (Isodiagnostika Inc., priority 1997, dated 2004)

How the values were obtained:
MoAb R-1-1 = test: Inhibition ELISA of MoAb R-1-1; type: binding, mouse; set-up: concentration or dose not given beside the values; details: tissue culture supernatant
Description: (§1) Inhibition ELISA Protocol
(§2) 1. Use Falcon® Pro-bind™ inununoplates.
(§3) 2. Dilute coating antigen to 1 μg/mL in carbonate-bicarbonate buffer.
(§4) Add 100 μL per well and incubate overnight at 4° C.
(§5) 3. On the same day prepare inhibiting antigen tubes. Aliquot antibodies into glass test tubes. Prepare appropriate antigen concentration in ethanol and add to aliquoted antibody at 10 μL ethanol solution/250 μL antibody.
(§6) Vortex tubes and incubate overnight at 4° C.
(§7) 4. Shake out wells and wash 3× with 200 μL PBS/0.05% TWEEN™ (polyoxyethylene-sorbitol) (v/v) per well.
(§8) 5. Add 200 μL blocking buffer per well (PBS/2% BSA (w/v)).
(§9) Incubate 60 min at room temperature.
(§10) 7. Transfer contents of inhibition tubes to antigen-coated plate, 100 μL per well. Incubate 60 min at 37° C.
(§11) 9. […] Add 100 μL per well and incubate at 37° C. for 60 min.
(§12) 11. […] Add 100 μL per well and incubate in the dark at room temperature. Absorbance can be read at 405 nm at approximately 15-min intervals.
(§13) To further characterize the reactivity of monoclonal antibodies from various clones, inhibition ELISA were performed.

[1] = tested on: Rabbit #1 polyclonal antibody (Rapa-42-DVS-KLH immunogen); test: Inhibition ELISA of rabbit #1 polyclonal serum; type: binding; set-up: concentration or dose not given beside the values; details: Rapa antigen coated ELISA plate
Description: as §1, §2, §3, §4, §5, §6, §7, §8, §9, §10, §11, §12

lymphocytes = test: In vitro mixed lymphocyte reaction (MLR) assay, two-way lymphocyte proliferation; type: cell-based; details: 3H-thymidine incorporation
Excerpt: The MLR assay is useful for identifying rapamycin metabolites with biological (immunosupressive) activity and to quantify this activity relative to the immunosuppressive activity of the parent rapamycin molecule.
An example of a two-way lymphocyte proliferation assay procedure useful for this purpose is as follows:
1. Collect blood from two individuals (20 mls each) and isolate lymphocytes using Ficoll-Paque™ (polysucrose and sodium diatrizoate) (Pharmacia Biotech).
2. Count lymphocytes at 1:10 dilution in 2% acetic acid (v/v).
3. Prepare 10 mls of each lymphocyte populations (A+B) at 1×10^6 cells/ml in DMEM/20% FCS (v/v).
4. Set up a 96 well sterile tissue culture plate, flat bottom (Sarstedt, cat # 83.1835). To each well add:
5. Aliquot 100 μl per well lymphocyte population A
6. Aliquot 100 μl per well lymphocyte population B
7. Aliquot 20 μl per well of drug (rapamycin and rapamycin metabolites M1-5) serially diluted 0 to 1000 μg/L in triplicate in DMEM with no supplements.
8. […]
10. […] Wash cells 3× with 1.0-ml sterile distilled water.
Note: All procedures are done using sterile techniques in a biological flow hood.
11. Place filters in Scintilation vials and add 1.5 mls of ScintiSafe Plus™ 50% scintillation fluid (Fisher, cat #SX-25-5).
12. Measure the amount of radioactivity incorporated in the lymphocytes using a beta counter (Micromedic System Inc., TAURUS™ Automatic Liquid Scintillation Counter) for 1.0 minute.
13. Calculate averages and standard deviations for each drug and express results as: [formula]

MoAb R-1-5 = test: Inhibition ELISA of MoAb R-1-5; type: binding, mouse; set-up: concentration or dose not given beside the values; details: tissue culture supernatant
Description: as §1, §2, §3, §4, §5, §6, §7, §8, §9, §10, §11, §12, §13

[2] = tested on: Mouse polyclonal antibody Rapa-DVS #9; test: Inhibition ELISA of mouse polyclonal serum Rapa-DVS #9; type: binding; set-up: concentration or dose not given beside the values
Description: as §1, §2, §3, §4, §5, §6, §7, §8, §9, §10, §11, §12

[3] = tested on: Mouse polyclonal antibody Rapa-DVS #7; test: Inhibition ELISA of mouse polyclonal serum Rapa-DVS #7; type: binding; set-up: concentration or dose not given beside the values
Description: as §1, §2, §3, §4, §5, §6, §7, §8, §9, §10, §11, §12

MoAb R-2-2 = test: Inhibition ELISA of MoAb R-2-2; type: binding, mouse; set-up: concentration or dose not given beside the values; details: tissue culture supernatant
Description: as §1, §2, §3, §4, §5, §6, §7, §8, §9, §10, §11, §12, §13

MoAb R-3-1 = test: Inhibition ELISA of MoAb R-3-1; type: binding, mouse; set-up: concentration or dose not given beside the values; details: tissue culture supernatant
Description: as §1, §2, §3, §4, §5, §6, §7, §8, §9, §10, §11, §12, §13

[4] = tested on: Mouse polyclonal antibody Rapa-27 #12 (Rapa-27-ox-DVS-KLH immunogen); test: Inhibition ELISA of mouse polyclonal serum Rapa-27 #12; set-up: concentration or dose not given beside the values; details: binding to Rapa-27-HSA
Description: as §1, §2, §3, §4, §5, §6, §7, §8, §9, §10, §11, §12

[5] = Relative concentrations of Rapa metabolites in pooled whole blood patient samples (LC/MS); type: in vivo; details: Rapa = 1
Excerpt: No individual metabolite is found at a concentration greater than 20% of the Rapa parent level.

[6] = tested on: Chicken polyclonal antibody (IgY, Rapa-42-DVS-KLH immunogen); test: Inhibition ELISA of chicken IgY prep; type: binding; set-up: concentration or dose not given beside the values; details: Rapa antigen coated ELISA plate
Description: as §1, §2, §3, §4, §5, §6, §7, §8, §9, §10, §11, §12

MoAb R-4-1 = test: Inhibition ELISA of MoAb R-4-1; type: binding, mouse; details: tissue culture supernatant
Description: as §1, §2, §3, §4, §5, §6, §7, §8, §9, §10, §11, §12

MoAb R-5-3 = test: Inhibition ELISA of MoAb R-5-3; type: binding, mouse; details: tissue culture supernatant
Description: as §1, §2, §3, §4, §5, §6, §7, §8, §9, §10, §11, §12

MoAb R-4-7 = test: Inhibition ELISA of MoAb R-4-7; type: binding, mouse; details: tissue culture supernatant
Description: as §1, §2, §3, §4, §5, §6, §7, §8, §9, §10, §11, §12

| Compound | Percent inhibition of MoAb R-1-1 (MoAb R-1-1) [%] | Percent inhibition of Rabbit #1 polyclonal antibody [1] [%] | Mixed Lymphocyte Reaction IC50, Mean (lymphocytes) [µg/L] | Percent inhibition of MoAb R-1-5 (MoAb R-1-5) [%] | Percent inhibition of mouse polyclonal antibody Rapa-DVS #9 [2] [%] | Percent inhibition of mouse polyclonal antibody Rapa-DVS #7 [3] [%] | Percent inhibition of MoAb R-2-2 (MoAb R-2-2) [%] | Percent inhibition of MoAb R-3-1 (MoAb R-3-1) [%] | Percent inhibition of mouse polyclonal antibody Rapa-27 #12 [4] [%] | Relative Concentration in whole blood [5] | Percent inhibition of Chicken polyclonal antibody [6] [%] | Percent inhibition of MoAb R-4-1 (MoAb R-4-1) [%] | Percent inhibition of MoAb R-5-3 (MoAb R-5-3) [%] | Percent inhibition of MoAb R-4-7 (MoAb R-4-7) [%] | Percent inhibition of mouse polyclonal antibody Rapa-27 #12 ([4]; listed as Met 3) [%] | Percent inhibition of mouse polyclonal antibody Rapa-27 #12 ([4]; listed as metabolite # 3) [%] |
| --- | --- | --- | --- | --- | --- | --- | --- | --- | --- | --- | --- | --- | --- | --- | --- | --- |
| CO[C@H]1C[C@@H]2CC[C@@H](C)[C@@](O)(O2)C(=O)C(=O)N2CCCC[C@H]2C(=O)O[C@H]([C@H](C)C[C@@H]2CC[C@@H](O)[C@H](O)C2)CC(=O)[C@H](C)/C=C(\C)[C@@H](O)[C@@H](O)C(=O)[C@H](C)C[C@H](C)/C=C/C=C/C=C/1C [M5, 32,41-Demethyl Rapamycin] | 29 | 16 | 4.67 | 44 | 37.3 | 39.8 | 10 | 94 | 0 | 0.02 | 35 | 88 | 46 | 87 | – | – |
| keyhole limpet hemocyanin [KLH] | 3 | 0 | – | 10 | 12.5 | 7.8 | 16 | 0 | 0 | – | 0 | – | – | – | – | – |
| C=CCC1C=C(C)CC(C)CC(O)C2OC(O)(C(=O)C(=O)N3CCCCC3C(=O)OC(C(C)=CC3CCC(O)C(OC)C3)C(C)C(O)CC1=O)C(C)CC2OC (stereo not shown) [FK met 2, 15-O-Demethyl] | 57 | 0 | – | 36 | – | – | 16 | 0 | – | – | 0 | – | – | – | – | – |
| C=CCC1C=C(C)CC(C)CC(OC)C2OC(O)(C(=O)C(=O)N3CCCCC3C(=O)OC(C(C)=CC3CCC(O)C(OC)C3)C(C)C(O)CC1=O)C(C)CC2O (stereo not shown) [FK met 1, 13-O-Demethyl] | 46 | 0 | – | 24 | – | – | 19 | 0 | – | – | 0 | – | – | – | – | – |
| CO[C@H]1C[C@@H]2CC[C@@H](C)[C@@](O)(O2)C(=O)C(=O)N2CCCC[C@H]2C(=O)O[C@H]([C@H](C)C[C@@H]2CC[C@@H](O)[C@H](O)C2)CC(=O)[C@H](C)/C=C(\C)[C@@H](O)[C@@H](OC)C(=O)[C@H](C)C[C@H](C)/C=C/C=C/C=C/1C [M4, 41-O-Demethyl Rapamycin] | 30 | 28 | 5.9 | 57 | 28.6 | 40.1 | 71 | 96 | 37 | 0.10 | 18 | 82 | 47 | 54 | – | – |
| C=CCC1C=C(C)CC(C)CC(OC)C2OC(O)(C(=O)C(=O)N3CCCCC3C(=O)OC(C(C)=CC3CCC(O)C(O)C3)C(C)C(O)CC1=O)C(C)CC2O (stereo not shown) [FK met 4, 13,3 1-Didemethyl] | 53 | 0 | – | 38 | – | – | 13 | 0 | – | – | 13 | – | – | – | – | – |
| C=CCC1C=C(C)CC(C)CC(OC)C2OC(O)(C(=O)C(=O)N3CCCCC3C(=O)OC(C(C)=CC3CCC(O)C(O)C3)C(C)C(O)CC1=O)C(C)CC2OC (stereo not shown) [FK met 3, 31-O-Demethyl] | 45 | 0 | – | 26 | – | – | 9 | 0 | – | – | 0 | – | – | – | – | – |
| C=CCC1C=C(C)CC(C)CC(O)C2OC(O)(C(=O)C(=O)N3CCCCC3C(=O)OC(C(C)=CC3CCC(O)C(O)C3)C(C)C(O)CC1=O)C(C)CC2OC (stereo not shown) [FK met 5, 15,3 1-O-Didemethyl] | 46 | 0 | – | 26 | – | – | 13 | 0 | – | – | 0 | – | – | – | – | – |
| CO[C@@H]1C[C@H](C[C@@H](C)[C@@H]2CC(=O)[C@H](C)/C=C(\C)[C@@H](O)[C@@H](OC)C(=O)[C@H](C)C[C@H](C)/C=C/C=C/C=C(\C)[C@@H](O)C[C@@H]3CC[C@@H](C)[C@@](O)(O3)C(=O)C(=O)N3CCCC[C@H]3C(=O)O2)CC[C@H]1O [M3, 7-O-Demethyl Rapamycin] | 32 | 15 | 2.85 | 56 | 30.8 | 28.3 | 26 | 92 | – | 0.10 | 35 | 85 | 37 | 67 | 43 | 42 |
